Patent US20160120938A1, “P2X7 RECEPTOR AGONIST FOR USE IN PREVENTING OR TREATING KIDNEY INJURY” (UCL BUSINESS PLC, priority 2013, published 2016)

Legend:
Assay type in all cases: in vivo
P2X7R [1] = molecular target: T1, P2X7R (Rattus norvegicus, UniProt Q64663); test: Biomarkers of acute kidney injury in cirrhotic AKI model (BDL rat + LPS) with P2X7R antagonist; settings: 300 μmol/kg 12-hourly 7 days before LPS 0.5 mg/kg IP, terminated 3 hours post LPS
T1 construct: upregulation of the tubular expression of the P2X7R; from tissue; host or cells: kidney of living Sprague-Dawley rats (sham, BDL, BDL+LPS); compounds dosed in vivo
T1 sequence (Q64663 1-595): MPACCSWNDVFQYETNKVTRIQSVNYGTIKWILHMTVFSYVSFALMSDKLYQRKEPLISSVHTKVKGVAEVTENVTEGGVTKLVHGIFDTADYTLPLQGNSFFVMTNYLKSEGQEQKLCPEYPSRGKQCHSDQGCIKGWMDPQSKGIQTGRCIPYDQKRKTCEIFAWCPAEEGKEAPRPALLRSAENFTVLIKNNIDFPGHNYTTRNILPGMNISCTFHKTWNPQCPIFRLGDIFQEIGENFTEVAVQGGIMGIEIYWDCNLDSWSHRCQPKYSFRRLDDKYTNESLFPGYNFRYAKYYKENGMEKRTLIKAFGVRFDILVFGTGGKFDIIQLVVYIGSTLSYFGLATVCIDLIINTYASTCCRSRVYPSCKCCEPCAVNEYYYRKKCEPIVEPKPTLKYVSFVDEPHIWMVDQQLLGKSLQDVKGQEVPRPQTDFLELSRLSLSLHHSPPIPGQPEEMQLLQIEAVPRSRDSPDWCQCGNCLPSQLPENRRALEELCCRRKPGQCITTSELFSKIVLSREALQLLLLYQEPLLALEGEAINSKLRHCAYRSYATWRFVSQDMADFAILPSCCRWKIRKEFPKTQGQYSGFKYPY
Text: (§1) These experiments utilised an established animal model of cirrhosis, the bile duct ligated (BDL) rat. BDL rats may be generated by methods known in the art. For example, male Sprague-Dawley rats (200-250 g) may be used for this procedure. Following anaesthetisation, a mid-line laparotamy may be performed, the bile duct exposed, triply ligated with 4.0 silk suture, and severed between the second and third ligature. The wound is then closed in layers with absorbable suture, and the animal allowed to recover in a quiet room before being returned to the animal storage facility. Sham animals underwent sham laparotomy. The BDL model was studied 4 weeks after bile duct ligation and liver histology confirmed advanced fibrosis.
(§2) LPS (lipopolysaccharide) was given at a dose of 0.5 mg/kg intra-peritoneal. The P2X7R antagonist (A-438079) was given at a dose of 300 μmol/kg 12-hourly 7 days before LPS was given (if applicable). Animals were terminated 3 hours post LPS dose. P2X7RA=P2X7R antagonist.
Urine was collected for assessment of urinary biomarkers of acute kidney injury (AKI). Blood was collected for biochemistry, endotoxin and cytokine analysis. Tissue was collected for histology, immunohistochemistry and western blot. Brain frontal cortex was collected to ascertain brain water. Biochemistry was measured using COBAS integra. Urinary NGAL was measured by ELISA.

P2X7R [2] = molecular target: T1, P2X7R; test: P2X7 receptor expression in kidneys, cirrhotic AKI model (BDL rat + LPS), immunohistochemistry; settings: 300 μmol/kg IP 12-hourly for 7 days, with or without LPS 0.5 mg/kg IP, n=3 in each group, FIG. 3
Text: as §1, §2
Urine was collected for assessment of urinary biomarkers of acute kidney injury (AKI). Blood was collected for biochemistry, endotoxin and cytokine analysis. Tissue was collected for histology, immunohistochemistry and western blot. Brain frontal cortex was collected to ascertain brain water. Biochemistry was measured using COBAS integra. Urinary NGAL was measured by ELISA. […]

P2X7R [3] = molecular target: T1, P2X7R; test: Creatinine in BDL rats given LPS infusion with intra-renal P2X7R agonist; settings: LPS 0.25 mg/kg iv over 3 hours
Text: as §1
Rats were given a continuous intravenous infusion of LPS at 0.25 mg/kg over 3 hours. The P2X7R agonist BzATP was infused into the renal artery 30 mins before LPS infusion began and continued for the duration of the experiment at a dose of 150 μg/hour.

Compound	biomarkers of acute kidney injury (urine NGAL, creatinine) compared to the other groups (P2X7R [1]; FIG. 4)	biomarkers of acute kidney injury (urine NGAL, creatinine) compared to the other groups (P2X7R [1]; FIG. 4, listed as P2X7R antagonist)	increased P2X7 receptor expression in kidneys (tubular expression) of BDL and BDL+LPS animals (P2X7R [2])	Creatinine (mean) (P2X7R [3]; BDL + LPS + BzATP group, 150 μg/hour into renal artery) [µmol/L]	reduction of LPS induced rise in creatinine (P2X7R [3]; BDL rat, infused into renal artery 150 μg/hour from 30 mins before LPS, FIG. 7) [%]
Clc1cccc(-c2nnnn2Cc2cccnc2)c1Cl [A-438079]	greater	higher	attenuated	–	–
2′(3′)-O-(4-Benzoylbenzoyl)adenosine-5′-triphosphate [BzATP]	–	–	–	57.93	24
